Data set [1] in a line: saturation concentration of acetylsalicylic acid in the solvent mixture. The format is physicochemical. Conditions: solvent mixture: propylene glycol about 10 percent by volume, glycerine about 2 percent by volume, balance isopropyl alcohol/water with isopropyl alcohol about 70 percent by volume.
For data set [2] the following is noted: cited from earlier work.

As to `CC(=O)Oc1ccccc1C(=O)O` [acetylsalicylic acid], the “saturation concentration of the acetylsalicylic acid in this solvent mixture” value in data set [1] was “about 18 percent by weight per unit volume”. In addition, the “solubility in water or water based substances” value in data set [2] is “virtually insoluble”.

Source of the values: US20050002885A1, “Topical compositions and methods for treating pseudofolliculitis barbae and ingrown hair” (priority 1993, published 2005).
